Assay results: PMC8269058, “The Odorant-Binding Proteins of the Spider Mite Tetranychus urticae” (International Journal of Molecular Sciences, 2021)

Legend:
TurtOBP4 [1] = assay: competitive fluorescence binding assay, displacement of 1-NPN; parameters: species or system Tetranychus urticae
TurtOBP1 [2] = assay: as above; parameters: species or system Tetranychus urticae
TurtOBP1 [3] = assay: fluorescent probe titration (blue shift) with purified recombinant protein; type: binding, Tetranychus urticae
TurtOBP4 [4] = assay: as above; type: binding, Tetranychus urticae

| SMILES | Kd (TurtOBP4 [1]) | Kd (TurtOBP1 [2]) | Kd (TurtOBP1 [3]) | Kd (TurtOBP4 [4]) |
| --- | --- | --- | --- | --- |
| COc1cc(/C=C/C=O)ccc1O [coniferyl aldehyde] | 6.4 µM | 9.8 µM | – | – |
| c1ccc(Nc2cccc3ccccc23)cc1 [1-NPN] | – | – | 9.7 µM | 3.5 µM |
